Read-outs that look alike come from different tables or passages of the source.
What was measured:
[1] = target: NET (Homo sapiens, UniProt P23975); assay: MDS LeadProfilingScreen, NET; format: binding
[2] = target: Nicotinic α3β4 (Homo sapiens, UniProt P30926+P32297); assay: Selectivity screen, Nicotinic α3β4; format: binding
[3] = target: Sigma σ1 (Homo sapiens, UniProt Q99720); assay: MDS LeadProfilingScreen, Sigma σ1; format: binding
[4] = target: T1, dopamine transporter (DAT) (Mus musculus, UniProt Q61327); assay: MPTP model of DAT inhibition (striatal dopamine depletion); format: in vivo, C57 mouse; design: Dopamine Mean ± SEM / DOPAC Mean ± SEM / HVA Mean ± SEM: unit not given here
T1 construct: in vivo DAT transporter occupancy (open bars) in mouse striatum; from tissue; host or cells: mouse striatum (in vivo; C57 mice in the MPTP model)
Description: In this model compound (I) induced protection against the dopamine depletion induced by the entry of the MPTP metabolite MPP+ into the dopamine terminals of the mouse C57 striatal tissue.

[5] = target: T2, NA transporter (Mus musculus, UniProt O55192); assay: Ex vivo NA uptake in mice
T2 construct: from tissue; host or cells: tissue of dosed animals (ex vivo)
Experimental: The in vivo receptor occupancy (RO %) of compound (I) was calculated at the MED values (DOSE) in mFST and in the mouse motility test using the formula RO % (estimated)=DOSE 100/(ED50+DOSE). The calculations were based on ED50 values in ex vivo uptake of 5-HT and NA and WIN in vivo binding.

[6] = Bioavailability study in mouse; format: in vivo
Description: Compound (I) is absorbed quickly.

[7] = Tissue distribution after single dose, rat; format: in vivo; conditions: sc; for AUC(0-t): male, Wistar, rat 5 mg/kg s.c., read-out: AUC(0-24 h); for half-life: rat, male Wistar rats 5 mg/kg s.c., read-out: T½ (converted)
Experimental: Compound (I) was dosed to male Wistar rats 5 mg/kg s.c. Plasma was taken 0.5, 1, 2, 4, 6 and 24 post dose. Brain, liver and lung were taken 1, 4 and 24 hours post dose.
The plasma profile was again essentially the same as for the single dose study showing the same T½ of 0.8 h. AUC and T½ were calculated for plasma and organs, even though the data are very sparse for the organs.

[8] = Metabolic stability in liver microsomes, rat; format: in vitro ADME
Experimental: The metabolic stability of compound (I) was tested in liver microsomes from all in house available species at 1 and 5 μM. One metabolite of 16 mass units higher than parent, was found in all incubations, except with human liver microsomes.

[9] = target: CYP 2C9 (Homo sapiens, UniProt P11712); assay: CYP450 inhibition, cocktail of selective substrates, 2C9; format: in vitro ADME; conditions: CYP 2C9, Tolbutamide to 4-hydroxytolbutamide; read-out: IC50 of compound (I)
Experimental: Compound (I) was tested for CYP450 inhibition using a cocktail of selective substrates. […] This might be addressed later in a clinical study.

[10] = tested on: plasma protein; assay: Plasma protein binding by equilibrium dialysis, rat; format: in vitro ADME
Experimental: (§1) The plasma protein binding was tested in rat, mouse, dog and human plasma by equilibrium dialysis. The plasma protein binding of this compound is remarkably low (Table 24).

[11] = tested on: plasma protein; assay: Plasma protein binding by equilibrium dialysis, mouse; format: in vitro ADME
Experimental: as §1

[12] = target: hERG channels (Homo sapiens, UniProt Q12809); assay: cell-based
Experimental: A HEK293 cell line stably expressing Kv11.3 for hERG and KCNE1 (minK) was established. The effect of compound (I) on the amount of current carried by hERG channels was assessed in whole-cell patch clamp experiments. The channels were activated by a voltage protocol designed to simulate a human cardiac action potential.

[13] = 7.5 mg/kg p.o. 0 min + MPTP 25 mg/kg s.c. 60 min
[14] = 15 mg/kg p.o. 0 min + MPTP 25 mg/kg s.c. 60 min
[15] = 30 mg/kg p.o. 0 min + MPTP 25 mg/kg s.c. 60 min
[16] = female, NMRI, plasma, intravenous, 10 mg/kg
[17] = female, NMRI, plasma, po, 10 mg/kg p.o.

Nicotinic α3β4, sequence (P32297 32-505): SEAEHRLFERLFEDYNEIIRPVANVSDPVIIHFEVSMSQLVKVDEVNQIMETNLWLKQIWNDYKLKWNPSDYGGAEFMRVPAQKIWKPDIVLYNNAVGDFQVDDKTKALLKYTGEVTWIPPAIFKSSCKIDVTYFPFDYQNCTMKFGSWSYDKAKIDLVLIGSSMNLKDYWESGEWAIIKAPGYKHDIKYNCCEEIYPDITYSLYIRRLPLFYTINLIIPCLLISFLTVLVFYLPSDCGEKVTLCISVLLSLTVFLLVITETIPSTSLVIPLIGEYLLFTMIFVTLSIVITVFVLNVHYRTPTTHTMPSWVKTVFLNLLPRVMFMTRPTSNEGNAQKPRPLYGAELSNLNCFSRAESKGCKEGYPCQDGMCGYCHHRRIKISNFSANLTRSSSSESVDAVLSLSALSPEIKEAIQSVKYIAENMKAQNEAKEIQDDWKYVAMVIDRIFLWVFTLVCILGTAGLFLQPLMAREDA
Nicotinic α3β4, sequence (P30926 22-498): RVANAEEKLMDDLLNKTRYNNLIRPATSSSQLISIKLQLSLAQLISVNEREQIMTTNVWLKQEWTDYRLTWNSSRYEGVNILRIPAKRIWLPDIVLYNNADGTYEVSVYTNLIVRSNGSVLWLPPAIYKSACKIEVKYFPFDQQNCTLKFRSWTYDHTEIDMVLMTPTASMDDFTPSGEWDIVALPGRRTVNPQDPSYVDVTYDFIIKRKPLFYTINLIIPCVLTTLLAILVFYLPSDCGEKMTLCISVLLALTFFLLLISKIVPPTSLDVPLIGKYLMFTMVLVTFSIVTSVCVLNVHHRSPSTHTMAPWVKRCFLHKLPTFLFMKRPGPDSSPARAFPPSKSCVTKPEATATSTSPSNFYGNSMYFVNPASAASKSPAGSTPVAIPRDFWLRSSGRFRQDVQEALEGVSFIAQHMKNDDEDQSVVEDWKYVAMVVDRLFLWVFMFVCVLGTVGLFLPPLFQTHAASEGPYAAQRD
T2 sequence (O55192 whole entry): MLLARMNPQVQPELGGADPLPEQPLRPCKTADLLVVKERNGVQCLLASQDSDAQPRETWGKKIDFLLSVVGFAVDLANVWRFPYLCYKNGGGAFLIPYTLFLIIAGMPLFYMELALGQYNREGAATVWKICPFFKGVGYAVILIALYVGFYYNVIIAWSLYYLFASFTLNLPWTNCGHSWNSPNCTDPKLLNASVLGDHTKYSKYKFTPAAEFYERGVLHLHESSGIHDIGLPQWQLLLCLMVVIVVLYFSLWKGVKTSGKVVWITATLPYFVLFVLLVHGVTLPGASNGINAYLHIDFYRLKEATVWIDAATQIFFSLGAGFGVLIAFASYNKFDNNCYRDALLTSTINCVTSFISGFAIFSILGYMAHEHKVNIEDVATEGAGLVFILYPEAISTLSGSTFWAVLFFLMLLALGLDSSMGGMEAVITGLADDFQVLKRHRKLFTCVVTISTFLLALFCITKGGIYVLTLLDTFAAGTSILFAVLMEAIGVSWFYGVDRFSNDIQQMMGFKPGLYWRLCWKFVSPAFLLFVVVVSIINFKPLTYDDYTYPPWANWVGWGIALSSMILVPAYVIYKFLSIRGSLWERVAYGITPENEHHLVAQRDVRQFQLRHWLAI
T1 sequence (Q61327 whole entry): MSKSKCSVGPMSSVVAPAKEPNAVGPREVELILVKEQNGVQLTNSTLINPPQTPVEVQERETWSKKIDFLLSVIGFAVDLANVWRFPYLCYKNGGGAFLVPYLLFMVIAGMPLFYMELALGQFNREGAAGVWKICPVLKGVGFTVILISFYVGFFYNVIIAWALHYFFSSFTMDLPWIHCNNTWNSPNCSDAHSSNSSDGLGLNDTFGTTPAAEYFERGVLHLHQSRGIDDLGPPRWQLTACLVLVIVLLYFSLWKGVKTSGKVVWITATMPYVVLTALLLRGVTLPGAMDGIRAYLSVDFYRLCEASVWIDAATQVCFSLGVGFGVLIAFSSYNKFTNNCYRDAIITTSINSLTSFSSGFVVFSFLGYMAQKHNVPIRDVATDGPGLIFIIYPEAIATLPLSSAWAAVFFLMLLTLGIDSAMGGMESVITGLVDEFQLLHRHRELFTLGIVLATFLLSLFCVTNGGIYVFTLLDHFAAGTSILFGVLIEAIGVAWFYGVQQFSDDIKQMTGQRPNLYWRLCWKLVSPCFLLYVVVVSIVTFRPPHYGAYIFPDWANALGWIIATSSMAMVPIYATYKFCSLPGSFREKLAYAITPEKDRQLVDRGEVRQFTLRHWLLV
NET, sequence (P23975 whole entry): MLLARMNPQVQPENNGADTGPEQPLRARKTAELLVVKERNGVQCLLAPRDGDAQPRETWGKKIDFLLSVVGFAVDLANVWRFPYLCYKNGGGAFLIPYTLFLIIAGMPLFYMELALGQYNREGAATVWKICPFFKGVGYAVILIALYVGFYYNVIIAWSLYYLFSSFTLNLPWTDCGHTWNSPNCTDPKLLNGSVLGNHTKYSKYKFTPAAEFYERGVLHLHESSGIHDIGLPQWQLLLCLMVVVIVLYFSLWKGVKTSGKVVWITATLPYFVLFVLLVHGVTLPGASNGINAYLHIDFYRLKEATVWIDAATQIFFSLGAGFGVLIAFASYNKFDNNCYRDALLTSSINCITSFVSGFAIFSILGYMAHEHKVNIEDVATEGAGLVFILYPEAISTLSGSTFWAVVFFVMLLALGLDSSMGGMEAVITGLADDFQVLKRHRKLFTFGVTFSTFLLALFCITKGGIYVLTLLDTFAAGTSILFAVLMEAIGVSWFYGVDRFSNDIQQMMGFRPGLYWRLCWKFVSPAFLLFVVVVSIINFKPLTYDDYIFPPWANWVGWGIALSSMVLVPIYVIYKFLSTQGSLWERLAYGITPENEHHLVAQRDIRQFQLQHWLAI
hERG channels, sequence (Q12809 whole entry): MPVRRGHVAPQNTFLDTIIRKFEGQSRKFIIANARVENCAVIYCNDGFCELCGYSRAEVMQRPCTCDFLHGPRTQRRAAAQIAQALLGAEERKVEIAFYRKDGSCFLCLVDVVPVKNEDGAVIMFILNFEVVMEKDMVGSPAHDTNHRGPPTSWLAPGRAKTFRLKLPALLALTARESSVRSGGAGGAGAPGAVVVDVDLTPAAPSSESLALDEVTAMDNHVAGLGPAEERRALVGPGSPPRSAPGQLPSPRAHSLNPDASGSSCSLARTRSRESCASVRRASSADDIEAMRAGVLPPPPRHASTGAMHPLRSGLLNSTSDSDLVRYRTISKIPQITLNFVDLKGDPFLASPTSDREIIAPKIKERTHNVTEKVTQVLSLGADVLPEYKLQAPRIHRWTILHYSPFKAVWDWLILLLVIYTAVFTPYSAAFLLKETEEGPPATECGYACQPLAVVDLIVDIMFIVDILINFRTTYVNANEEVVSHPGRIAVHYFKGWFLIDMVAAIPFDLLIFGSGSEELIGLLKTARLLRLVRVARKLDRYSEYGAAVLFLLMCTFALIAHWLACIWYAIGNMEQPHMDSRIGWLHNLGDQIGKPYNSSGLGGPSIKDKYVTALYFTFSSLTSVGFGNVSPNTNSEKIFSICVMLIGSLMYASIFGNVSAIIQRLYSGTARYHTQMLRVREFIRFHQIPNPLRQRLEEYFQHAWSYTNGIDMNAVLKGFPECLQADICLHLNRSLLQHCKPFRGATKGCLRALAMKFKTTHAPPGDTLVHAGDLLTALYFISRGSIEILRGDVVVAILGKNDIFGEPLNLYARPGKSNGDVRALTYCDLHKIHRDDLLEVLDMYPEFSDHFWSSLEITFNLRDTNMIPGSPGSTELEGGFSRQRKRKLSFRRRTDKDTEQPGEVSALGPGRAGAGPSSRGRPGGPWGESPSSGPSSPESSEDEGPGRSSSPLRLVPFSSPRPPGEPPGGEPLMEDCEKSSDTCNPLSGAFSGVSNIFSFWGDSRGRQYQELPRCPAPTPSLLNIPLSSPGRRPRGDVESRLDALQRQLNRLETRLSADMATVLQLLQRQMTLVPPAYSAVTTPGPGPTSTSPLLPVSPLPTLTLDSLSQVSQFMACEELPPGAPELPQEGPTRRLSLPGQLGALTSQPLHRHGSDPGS
Sigma σ1, sequence (Q99720 whole entry): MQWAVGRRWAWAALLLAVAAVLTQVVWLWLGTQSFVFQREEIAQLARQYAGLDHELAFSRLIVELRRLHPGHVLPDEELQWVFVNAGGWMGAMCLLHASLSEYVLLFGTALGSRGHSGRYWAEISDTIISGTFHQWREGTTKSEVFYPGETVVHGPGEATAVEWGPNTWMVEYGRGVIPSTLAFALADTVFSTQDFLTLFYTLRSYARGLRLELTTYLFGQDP
CYP 2C9, sequence (P11712 whole entry): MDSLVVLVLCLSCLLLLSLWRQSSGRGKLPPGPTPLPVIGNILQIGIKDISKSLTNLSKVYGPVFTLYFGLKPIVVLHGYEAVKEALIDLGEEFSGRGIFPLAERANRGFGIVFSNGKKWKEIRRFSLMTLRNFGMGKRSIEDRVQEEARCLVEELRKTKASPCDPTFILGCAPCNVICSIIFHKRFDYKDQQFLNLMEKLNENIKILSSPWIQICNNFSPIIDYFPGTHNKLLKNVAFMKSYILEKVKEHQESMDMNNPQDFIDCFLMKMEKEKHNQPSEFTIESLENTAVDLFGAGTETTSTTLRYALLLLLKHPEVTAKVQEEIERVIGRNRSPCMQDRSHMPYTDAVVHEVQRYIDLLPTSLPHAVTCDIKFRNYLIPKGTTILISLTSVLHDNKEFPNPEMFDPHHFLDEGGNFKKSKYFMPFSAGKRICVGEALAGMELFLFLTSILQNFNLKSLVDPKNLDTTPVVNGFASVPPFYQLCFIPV

O=c1ccc2ccc(O[C@@H]3C[C@H]4CC[C@@H](C3)N4)cc2o1 [Compound (I), exo-7-(8-aza-bicyclo[3.2.1]oct-3-yloxy)-chromen-2-one]
Ki [1]: 0.594 µM
inhibition at 10 µM ([1]; NET, Human, 10 μM): 92%
Ki [2]: 5.05 µM
Separation to transporter hDAT ([2]; Nicotinic acetylcholine Ki versus hDAT Ki 155 nM): x32
Separation to transporter hNET ([2]; Nicotinic acetylcholine Ki versus hNET Ki 594 nM): x8.5
inhibition at 10 µM ([2]; Nicotinic α3β4, Human, 10 μM): 57%
inhibition at 10 µM [3]: 59%
DOPAC Mean ± SEM [4, 13]: 1 ± 0.2
Dopamine Mean ± SEM [4, 13]: 6.3 ± 1.1
HVA Mean ± SEM [4, 13]: 0.7 ± 0.1
DOPAC Mean ± SEM [4, 14]: 1.7 ± 0.1^
Dopamine Mean ± SEM [4, 14]: 12.5 ± 0.7
HVA Mean ± SEM [4, 14]: 1 ± 0.1
Protection against MPTP-induced dopamine depletion ([4]; 15 mg/kg, C57 mouse striatal tissue): approximately 90%
DOPAC Mean ± SEM [4, 15]: 2.1 ± 0.2^
Dopamine Mean ± SEM [4, 15]: 14.7 ± 1.2
HVA Mean ± SEM [4, 15]: 1.2 ± 0.1
NA RO % ([5]; estimated at MED in mFST (NMRI mice), DOSE 1 mg/kg): <1.9%
NA RO % ([5]; estimated at MED in mMotility, DOSE 10 mg/kg): <17%
ED50 ([5]; mouse, po): > 50 mg/kg
T½ i.v. ([6]; 10 mg/kg i.v., 10 mg/kg): 48 min
AUC(0-∞) p.o. ([6]; 10 mg/kg p.o., 10 mg/kg): 2308 ng·h/mL
Vd [6, 16]: 3.5 L/kg
clearance [6, 16]: 71.7 mL/min/kg
AUC(0-inf) ([6]; female, NMRI, plasma, iv, 10 mg/kg, 10 mg/kg i.v., read-out: AUC(0-∞) i.v.): 2310 ng·h/mL
half-life ([6]; female, NMRI, plasma, iv, 10 mg/kg, 10 mg/kg i.v., read-out: T½ i.v. (converted)): 36 min
Cmax [6, 17]: 1090 ng/mL
Tmax [6, 17]: 30 min
AUC(0-inf) ([6]; female, NMRI, plasma, po, 10 mg/kg, 10 mg/kg p.o., read-out: AUC(0-∞) p.o.): 1720 ng·h/mL
half-life ([6]; female, NMRI, plasma, po, 10 mg/kg, 10 mg/kg p.o., read-out: T½ p.o. (converted)): 66 min
bioavailability ([6]; plasma, oral, female NMRI mice, 10 mg/kg p.o. vs 10 mg/kg i.v.): 74%
AUC(0-t) ([7]; Brain): 3190 ng·h/mL
AUC(0-t) ([7]; Liver): 493 ng·h/mL
AUC(0-t) ([7]; Lung): 17600 ng·h/mL
AUC(0-t) ([7]; Plasma): 805 ng·h/mL
half-life ([7]; Brain): 216 min
half-life ([7]; Lung): 156 min
half-life ([7]; Plasma): 48 min
Stability at 1 μM [8]: 40%
Stability at 5 μM [8]: 61%
IC50 [9]: > 100 µM
fraction unbound at 81 ng/ml ([10]; 81 ng/ml): 0.566
fraction unbound at 271 ng/ml ([10]; 271 ng/ml): 0.65
fraction unbound at 813 ng/ml ([10]; 813 ng/ml): 0.582
fraction unbound at 2710 ng/ml ([10]; 2710 ng/ml): 0.635
fraction unbound at 2710 ng/ml [11]: 0.747
Ki [12]: > 10 µM
